Assay results from patent US20250000864A1, “GONADOTROPIN-RELEASING HORMONE ANTAGONIST, AND PREPARATION METHOD THEREFOR AND USE THEREOF” (SHANDONG LUYE PHARMACEUTICAL CO., LTD., priority 2021, published 2025).
Where two headings read alike, the source gives them in different places.

Experiments:
human GnRHR [1] = target: T1, human GnRHR (Homo sapiens (Human), UniProt P30968); test: In vitro binding screening ([125I][D-Trp6]-LH-RH displacement, Chem-1 cell membranes)
Description: [D-Trp6]-LH-RH, PerkinElmer; [D-Trp6]-LH-RH, Abcam.
Equipment: MicroBeta2 LumiJET system, PerkinElmer.
Method: Chem-1 cell membranes stably expressing human GnRHR were resuspended in HEPES at pH 7.4. […] [D-Trp6]-LH-RH was used in the non-specific binding assay. Cell membranes were collected by filtration under vacuum and washed before liquid scintillation. The binding IC50 and IC90 of the compounds were calculated using Prism.

[2] = Pituitary tissue distribution in SD rats after intragastric administration; type: in vivo; parameters: Plasma concentration / Pituitary concentration: unit not given here; conditions: i.g 12 mg/kg; for Concentration in the pituitary relative to Relugolix: vs Relugolix; for Concentration in the pituitary relative to compound 2A: vs compound 2A
Description: (§1) Instrument: water purification equipment, Millipore; electronic balance, METTLER TOLEDO; high-speed benchtop centrifuge, Thermo; water bath thermostatic oscillator, Shanghai Yiheng Technical Co., Ltd.; vortex oscillator, Thermo; LC-MS/MS, AB SCIEX.
(§2) Method: all compounds were formulated in DMSO and 20% solutol. In the pharmacokinetic experiment, the administration dose for the intravenous group (i.v) was 1 mg/kg, and the administration dose for the intragastric group (i.g) was 12 mg/kg, each group containing 3 rats. Blood was collected from the orbit of the rats before (0 h) the administration and at set time points after administration. In the tissue distribution experiment, the rats were subjected to intragastric administration at a dose of 12 mg/kg. […] The […] in a heparinized EP tube and centrifuged at 13,500 rpm for 10 min to isolate the plasma. The pituitary was homogenized with water in a certain proportion. The plasma and pituitary homogenates were pre-treated and then analyzed by LC-MS/MS to determine the concentration of the test substances in the plasma and the pituitary. The plasma drug concentration data were processed in a non-compartmental model using WinNonlin™ Version 6.3 (Pharsight, Mountain View, CA) pharmacokinetic software.

[3] = Pharmacokinetics in SD rats (i.v. and i.g.); type: in vivo; conditions: for bioavailability: i.g 12 mg/kg vs i.v 1 mg/kg, read-out: F (absolute bioavailability)
Description: as §1, §2

[4] = target: human hERG potassium channel (Homo sapiens (Human), UniProt Q12809); test: hERG test (QPatch automated patch clamp, CHO cells); type: cell-based; conditions: for Inhibitory activity on the human hERG potassium channel compared with Relugolix: in words, vs Relugolix
Description: Cell: CHO cells stably expressing a human hERG potassium channel (WuXi AppTec (Shanghai) Co., Ltd.) Reagent: physiological solution (pH=7.4): 140 mM NaCl, 4 mM KCl, 2 mM CaCl2), 1 mM MgCl2, 5 mM Glucose, 10 mM HEPES, Osmolarity: about 298 mOsm; external solution (pH=7.4): 80 mM NaCl, 4 mM KCl, 2 mM CaCl2), 1 mM MgCl2, 5 mM Glucose, 60 mM NMDG, 10 mM HEPES, Osmolarity: about 289 mOsm; internal solution (pH=7.4): 10 mM NaCl, 10 mM KCl, 110 mM KF, 10 mM HEPES, EGTA: […], Osmolarity: about 280 mOsm.
Equipment: QPatch high-throughput automated patch clamp system, Sophion.
Method: CHO cells stably expressing a human hERG potassium channel were digested with TrypLE and resuspended in a physiological solution for later use. The single-cell high-impedance sealing and whole-cell mode formation processes were automatically completed by Qpatch. The clamping voltage for the cells was −80 mV. Then a voltage of −50 mV was applied for 80 ms to subtract (current) leakage, and a voltage of +20 mV was applied for 4800 ms to open the hERG channel. The voltage was then reduced to −50 mV and maintained for 5000 ms. This process was used for data collection and analysis. Finally, the voltage was returned to the clamping voltage (−80 mV, 1000 ms). This process was repeated every 20,000 ms. 40 μL of solvent control (external solution+DMSO) was added first, and the test was performed for […] to collect baseline data. Then, 40 μL of each of the test compounds was added at various concentrations, and the test was performed for no less than […]. The compounds were each dissolved in DMSO, with test concentrations being 0.30 μM, 1.00 μM, 3.00 μM, 10.00 μM, and 30.00 μM. The IC50 data for the hERG test were obtained by analyzing using DataControl, Excel2013, and Prism.

human GnRHR [5] = target: T1, human GnRHR; test: In vitro antagonistic activity screening (FLIPR calcium fluorescence, Leuprolide acetate stimulation); type: cell-based; conditions: HEK293 cells stably expressing human GnRHR
Description: Cell: HEK293 cells stably expressing human GnRHR (WuXi AppTec (Shanghai) Co., Ltd.) Equipment: 384-well plate, Greiner; Vi-cell XR Cell Viability Analyzer, Beckman Coulter; incubator, Thermo.
Method: HEK293 cells stably expressing human GnRHR were seeded into a 384-well plate at a density of 20,000/well. Fluo-4 Direct™ No-wash Loading Buffer (Invitrogen) was added to each well the next day, and then the plate was put back into an incubator, incubated at 37° C. for 50 min, and then incubated at room temperature for 10 min. Test compounds were formulated in DMSO. […] Fluorescence values were determined using a FLIPR Tetra high throughput real-time fluorescence detection and assay system. Then 10 μL of Leuprolide acetate was added, and fluorescence values were determined. IC50 and IC90 of the compounds were calculated using Prism.

[6] = Caco-2 two-way permeability and efflux; type: in vitro ADME; conditions: human; for efflux ratio at 120 min: Caco-2
Description: (§3) Instrument: water purification equipment, ELGA LabWate; biosafety cabinet, NUAIRE; thermostatic CO2 incubator, Thermo; microplate reader, PerkinElmer; LC-MS/MS, AB SCIEX.
(§4) Method: A Caco-2 monolayer cell model was used to determine the two-way permeability of the test substances and evaluate whether the test substances were transported by the efflux of a transporter. In the experiment, Caco-2 cells were seeded into a 96-well cell culture plate and cultured for 28 consecutive days for transport assay. The test substances were each administered on two sides. After being incubated for 120 min, the samples at the apical end A, at the basal end B, and with cell lysis were collected and quantitatively determined for the content of the test substances by using a liquid chromatography-tandem mass spectrometry (LC/MS/MS) method. The apparent permeability coefficient (Papp) in the direction from the apical end to the basal end (A-B) and in the direction from the basal end to the apical end (B-A) and the efflux ratio were calculated from the concentrations of the test substances.

[7] = Metabolic stability in human liver microsomes; type: in vitro ADME
Description: (§5) Liver Microsome: Rat Liver Microsome and Human Liver Microsome Reagent: NADPH, Roche Diagnostics Gmbh; ACN, Merck Chemical; Tolbutamide, Sigma. Instrument: water purification equipment, Millipore; electronic balance, METTLER TOLEDO; high-speed benchtop centrifuge, Thermo; water bath thermostatic oscillator, Shanghai Yiheng Technical Co., Ltd.; vortex oscillator, Thermo; LC-MS/MS, AB SCIEX. Method: the metabolic stability of test substances was evaluated by using SD rat and human liver microsomes. The test substances were incubated with liver microsomes from different species by using NADPH under a water bath at 37° C. A cold acetonitrile solution containing a Tolbutamide internal standard substance was added at a specified time point to terminate the reaction. The samples were pre-treated and then subjected to semi-quantitative analysis by LC-MS/MS. The retention times of the analytes and Tolbutamide internal standard, the acquisition of chromatograms, and the integration of chromatograms were processed using software Analyst (A Sciex, Framingham, Massachusetts, USA). The in vitro elimination rate constant Ke of the samples was obtained by converting the ratio of the peak area of the samples to the peak area of the internal standard into the residual percentage, and the in vitro clearance rate and the half-life of the test samples were calculated.

Caco-2 cells = test: Caco-2 two-way permeability and efflux; type: in vitro ADME
Description: as §3, §4

[8] = Metabolic stability in rat liver microsomes; type: in vitro ADME, SD rat; conditions: Rat liver microsomes
Description: as §5

[9] = male, Sprague-Dawley (SD), rat, plasma, iv, i.v 1 mg/kg
[10] = male, Sprague-Dawley (SD), rat, plasma, po, i.g 12 mg/kg
[11] = intragastric group, vs Relugolix
[12] = intragastric group, vs compound 2A

human hERG potassium channel, sequence (Q12809 whole entry): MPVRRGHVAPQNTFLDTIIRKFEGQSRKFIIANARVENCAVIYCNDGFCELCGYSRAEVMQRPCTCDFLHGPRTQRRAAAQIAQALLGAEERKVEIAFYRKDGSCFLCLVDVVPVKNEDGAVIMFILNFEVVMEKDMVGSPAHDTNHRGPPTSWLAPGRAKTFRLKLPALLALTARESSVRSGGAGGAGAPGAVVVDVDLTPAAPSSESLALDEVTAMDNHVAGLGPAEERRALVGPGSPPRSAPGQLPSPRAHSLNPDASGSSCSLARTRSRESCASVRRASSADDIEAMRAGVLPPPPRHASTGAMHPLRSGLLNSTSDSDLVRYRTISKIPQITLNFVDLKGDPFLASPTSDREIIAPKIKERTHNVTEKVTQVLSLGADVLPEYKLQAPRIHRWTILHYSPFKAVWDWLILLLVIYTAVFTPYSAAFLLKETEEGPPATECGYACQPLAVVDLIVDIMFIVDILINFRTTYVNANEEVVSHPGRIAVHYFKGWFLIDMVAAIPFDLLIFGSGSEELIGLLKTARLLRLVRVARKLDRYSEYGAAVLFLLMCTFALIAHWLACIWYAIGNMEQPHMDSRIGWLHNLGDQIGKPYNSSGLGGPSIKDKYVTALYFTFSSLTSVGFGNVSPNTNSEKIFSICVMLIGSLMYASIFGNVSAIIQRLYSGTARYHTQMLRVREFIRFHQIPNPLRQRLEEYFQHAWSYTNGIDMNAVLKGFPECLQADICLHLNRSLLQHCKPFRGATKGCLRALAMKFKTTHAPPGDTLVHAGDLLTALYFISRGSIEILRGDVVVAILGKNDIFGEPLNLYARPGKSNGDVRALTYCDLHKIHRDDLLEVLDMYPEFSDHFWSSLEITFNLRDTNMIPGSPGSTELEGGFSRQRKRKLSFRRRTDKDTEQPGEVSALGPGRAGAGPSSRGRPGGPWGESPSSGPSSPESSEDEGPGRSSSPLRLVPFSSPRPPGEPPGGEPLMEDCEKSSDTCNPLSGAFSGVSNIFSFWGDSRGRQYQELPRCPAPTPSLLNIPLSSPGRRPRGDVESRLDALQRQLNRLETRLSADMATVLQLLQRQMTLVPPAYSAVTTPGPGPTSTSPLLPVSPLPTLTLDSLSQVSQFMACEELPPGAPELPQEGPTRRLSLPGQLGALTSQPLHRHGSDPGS
T1 sequence (P30968 whole entry): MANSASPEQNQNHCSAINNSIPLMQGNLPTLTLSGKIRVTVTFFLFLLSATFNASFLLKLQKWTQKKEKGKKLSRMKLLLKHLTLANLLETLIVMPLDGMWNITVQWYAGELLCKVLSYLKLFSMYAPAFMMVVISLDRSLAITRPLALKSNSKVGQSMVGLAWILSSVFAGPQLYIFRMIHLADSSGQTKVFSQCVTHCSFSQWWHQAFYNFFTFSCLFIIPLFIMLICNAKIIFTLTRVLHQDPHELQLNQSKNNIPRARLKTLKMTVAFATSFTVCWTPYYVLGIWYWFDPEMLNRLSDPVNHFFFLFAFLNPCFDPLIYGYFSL

CCNC(=O)Nc1ccc(-c2sc3c(c2CN(C)C)c(=O)n(-c2ccc(OC)nn2)c(=O)n3Cc2c(F)cccc2F)cc1 [Compound 2A]
IC90 (human GnRHR [1]): 13.2 nM
IC50 (human GnRHR [1]; Chem-1 cell membranes, 0.05 nM [125I]-[D-Trp6]-LH-RH): 0.87 nM
Pituitary concentration ([2]; 1 h): 280 ± 80
Plasma concentration ([2]; 1 h): 32.2 ± 18.0
Pituitary concentration ([2]; 4 h): 279 ± 70
Plasma concentration ([2]; 4 h): 13.3 ± 5.1
Pituitary concentration ([2]; 12 h): 333 ± 90
Plasma concentration ([2]; 12 h): 5.59 ± 1.55
Kp at 1 h ([2]; male, Sprague-Dawley (SD), rat, pituitary/plasma, oral, 1 h): 8.7
Kp at 4 h ([2]; male, Sprague-Dawley (SD), rat, pituitary/plasma, oral, 4 h): 21
Kp at 12 h ([2]; male, Sprague-Dawley (SD), rat, pituitary/plasma, oral, 12 h): 59.6
AUC(0-t) [3, 9]: 487 ± 150 ng·h/mL
C0 [3, 9]: 521 ± 322 ng/mL
MRT last [3, 9]: 4.14 ± 1.83 h
half-life [3, 9]: 6.64 ± 3.1 h
AUC(0-t) [3, 10]: 370 ± 109 ng·h/mL
Cmax [3, 10]: 69.9 ± 15.1 ng/mL
MRT last [3, 10]: 9.2 ± 2.3 h
half-life [3, 10]: 18 ± 15.9 h
bioavailability ([3]; male, Sprague-Dawley (SD), rat, plasma, po): 6.33%
Tmax ([3]; male, Sprague-Dawley (SD), rat, plasma, po, i.g 12 mg/kg, read-out: Tmax): 0.25 h
IC50 ([4]; CHO cells stably expressing human hERG potassium channel): 6070 nM
Inhibitory activity on the human hERG potassium channel compared with Relugolix [4]: equal to or less than that of Relugolix
IC50 (human GnRHR [5]; read-out: Functional IC50): 1.84 nM
IC90 (human GnRHR [5]; read-out: Functional IC90): 8.19 nM
efflux ratio at 120 min ([6]; read-out: Efflux ratio): 1180
Papp A→B at 120 min ([6]; Caco-2, 120 min incubation): 0.00816 ×10⁻⁶ cm/s
Papp B→A at 120 min ([6]; Caco-2, 120 min incubation): 9.65 ×10⁻⁶ cm/s

CCNC(=O)Nc1ccc(-c2sc3c(c2CN(C)C)c(=O)n(-c2ccc(OC)nn2)c(=O)n3Cc2c(F)cccc2F)cn1 [Compound 2]
Pituitary concentration ([2]; 1 h): 2250 ± 474
Pituitary/plasma ([2]; 1 h): 56.9
Plasma concentration ([2]; 1 h): 39.5 ± 14.0
Concentration in the pituitary relative to Relugolix ([2]; 1 h): 2.38 fold
Concentration in the pituitary relative to compound 2A ([2]; 1 h): 8.04 fold
Pituitary concentration ([2]; 4 h): 1841 ± 636
Pituitary/plasma ([2]; 4 h): 80.8
Plasma concentration ([2]; 4 h): 22.8 ± 2.5
Concentration in the pituitary relative to Relugolix ([2]; 4 h): 1.48 fold
Concentration in the pituitary relative to compound 2A ([2]; 4 h): 6.60 fold
Pituitary concentration ([2]; 12 h): 1254 ± 494
Pituitary/plasma ([2]; 12 h): 129
Plasma concentration ([2]; 12 h): 9.70 ± 3.10
Concentration in the pituitary relative to Relugolix ([2]; 12 h): 2.46 fold
Concentration in the pituitary relative to compound 2A ([2]; 12 h): 3.77 fold
AUClast relative to Relugolix [3, 11]: 2.45 fold
Absolute bioavailability relative to Relugolix [3, 11]: 3.47 fold
Cmax relative to Relugolix [3, 11]: 3.63 fold
AUClast relative to compound 2A [3, 12]: 0.96 fold
Absolute bioavailability relative to compound 2A [3, 12]: 3.14 fold
Cmax relative to compound 2A [3, 12]: 1.12 fold
bioavailability ([3]; male, rat, plasma, oral): 19.9%
Inhibitory activity on the human hERG potassium channel compared with Relugolix [4]: equal to or less than that of Relugolix
CLint scaled [7]: 4.86 mL/min/kg
half-life [7]: 4.28 h
Residual content at 60 min ([7]; NADPH, 37° C.): 83.8%
microsomal CLint ([7]; read-out: CLint(mic)): 5.4 µL/min/mg
Efflux ratio (Caco-2 cells; Caco-2): 294
Mean Papp A to B (Caco-2 cells; Caco-2, 120 min incubation): 0.0142 10^−6 cm/s
Mean Papp B to A (Caco-2 cells; Caco-2, 120 min incubation): 4.19 10^−6 cm/s
efflux ratio at 120 min [6]: ~6
Residual content at 60 min ([8]; NADPH, 37° C.): 61.0%
CLint scaled ([8]; SD): 28.4 mL/min/kg
half-life ([8]; SD): 1.46 h
microsomal CLint ([8]; SD, read-out: CLint(mic)): 15.8 µL/min/mg
